Assay results published in patent US9801901B2, “Alginate oligomers for use in overcoming multidrug resistance in bacteria” (priority 2009, dated 2017).
Converted amounts (≈) assume the structure as drawn. Read-outs that look alike come from different tables or passages of the source. Marks after values point to notes of the source that are not given here.

How the values were obtained:
[1] = system: Acinetobacter baumannii MDR ACB from Libya (V4); test: MIC assay, CAMHB with alginate oligomer, no visible growth; format: cell-based; conditions: for MIC: Table 2, V4 ACB (Libya)
Excerpt: The study described in Example 1 was repeated with the following strains of bacteria and antibiotics as detailed in Tables 4, 5 and 6.
The study described in Example 1 was repeated with the following strains of Acinetobacter baumannii, antibiotics and M-block alginate oligomer in place of OligoG CF-5/20 as detailed in Table 7. The M-block oligomer is 100% M with a DPn of 15 to 18,

[2] = system: strains of E. coli displaying MDR phenotypes; test: MIC-assay, Mueller-Hinton broth with G-block alginate, 384-well, OD600 (Table 11); format: cell-based; conditions: Escherichia coli, Escherichia coli (5702, Wales, V11) MDR, read-out: MIC
Excerpt: (§1) Minimum inhibitory concentration (MICs) of different antibiotics for strains of E. coli and Providencia stuartii displaying MDR phenotypes in the presence of varying concentrations of OligoCF-5/20 (0-10%). (MIC values are expressed in μg ml^−1).

[3] = system: MDR Providencia stuartii; test: as above; format: cell-based; conditions: Providencia stuartii (IR57 India, V7) MDR
Excerpt: as §1

[4] = system: V23 1322 Burkholderia cepacia; test: MIC assay, CAMHB with alginate oligomer, no visible growth; format: cell-based
[5] = system: Acinetobacter baumannii (MDR ACB, Libya, V4); test: MIC-assay, Mueller-Hinton broth with G-block alginate, 384-well, OD600
[6] = system: strains of Klebsiella pneumoniae displaying MDR phenotypes; test: MIC-assay, Mueller-Hinton broth with G-block alginate, 384-well, OD600 (Table 10); format: cell-based
Excerpt: Minimum inhibitory concentration (MICs) of different antibiotics for strains of Klebsiella pneumoniae displaying MDR phenotypes in the presence of varying concentrations of OligoCF-5/20 (0-10%). (MIC values are expressed in μg ml^−1).

Q: Which results are given for CC[C@H]1OC(=O)[C@H](C)[C@@H](O[C@H]2C[C@@](C)(OC)[C@@H](O)[C@H](C)O2)[C@H](C)[C@@H](O[C@@H]2O[C@H](C)C[C@H](N(C)C)[C@H]2O)[C@](C)(O)C[C@@H](C)CN(C)[C@H](C)[C@@H](O)[C@]1(C)O [Azithromycin]?
A: effect in combination with alginate oligomers ([1]; Example 1, Acinetobacter baumannii isolate): more positive effect; MIC ([1]; OligoCF-5/20 0G): 8^†; MIC ([1]; OligoCF-5/20 +2% G): 2^†; MIC ([1]; OligoCF-5/20 +6% G): <0.25^†; MIC ([1]; OligoCF-5/20 +10% G): <0.25†; MIC ([2]; G-block (OligoCF-5/20) 0%): 16 µg/mL (≈ 21.4 µM); MIC ([2]; G-block (OligoCF-5/20) 2%): 16 µg/mL (≈ 21.4 µM); MIC ([2]; G-block (OligoCF-5/20) 6%): 8 µg/mL (≈ 10.7 µM); MIC ([2]; G-block (OligoCF-5/20) 10%): 16 µg/mL (≈ 21.4 µM); MIC ([3]; G-block (OligoCF-5/20) 0%): < 2 µg/mL; MIC ([3]; G-block (OligoCF-5/20) 2%): < 2 µg/mL; MIC ([3]; G-block (OligoCF-5/20) 6%): < 2 µg/mL; MIC ([3]; G-block (OligoCF-5/20) 10%): < 2 µg/mL; MIC ([4]; Burkholderia cepacia, Table 5, V23 MDR Burk cep, OligoCF-5/20 0G, read-out: MIC): 128 µg/mL (≈ 171 µM); MIC ([4]; Burkholderia cepacia, Table 6, V23, Experiment 1 (18-03-10), OligoCF-5/20 0G, read-out: MIC): 64 µg/mL (≈ 85.4 µM); MIC ([4]; Burkholderia cepacia, Table 6, V23, Experiment 2 (18-03-10), OligoCF-5/20 0G, read-out: MIC): 32 µg/mL (≈ 42.7 µM); MIC ([4]; Burkholderia cepacia, Table 6, V23, Experiment 3 (19-03-10), OligoCF-5/20 0G, read-out: MIC): 16 µg/mL (≈ 21.4 µM); MIC ([4]; Table 5, V23 MDR Burk cep, OligoCF-5/20 +2% G): 64^† μg/ml; MIC ([4]; Table 5, V23 MDR Burk cep, OligoCF-5/20 +6% G): 16^† μg/ml; MIC ([4]; Table 5, V23 MDR Burk cep, OligoCF-5/20 +10% G): 4 µg/mL (≈ 5.34 µM); MIC ([4]; Table 6, V23, Experiment 1 (18-03-10), OligoCF-5/20 +2% G): 64 µg/mL (≈ 85.4 µM); MIC ([4]; Table 6, V23, Experiment 1 (18-03-10), OligoCF-5/20 +6% G): 64 µg/mL (≈ 85.4 µM); MIC ([4]; Table 6, V23, Experiment 1 (18-03-10), OligoCF-5/20 +10% G): 32^† μg/ml; MIC ([4]; Table 6, V23, Experiment 2 (18-03-10), OligoCF-5/20 +2% G): 32 µg/mL (≈ 42.7 µM); MIC ([4]; Table 6, V23, Experiment 2 (18-03-10), OligoCF-5/20 +6% G): 16^† μg/ml; MIC ([4]; Table 6, V23, Experiment 2 (18-03-10), OligoCF-5/20 +10% G): 16^† μg/ml; MIC ([4]; Table 6, V23, Experiment 3 (19-03-10), OligoCF-5/20 +2% G): 16 µg/mL (≈ 21.4 µM); MIC ([4]; Table 6, V23, Experiment 3 (19-03-10), OligoCF-5/20 +6% G): 16 µg/mL (≈ 21.4 µM); MIC ([4]; Table 6, V23, Experiment 3 (19-03-10), OligoCF-5/20 +10% G): 16 µg/mL (≈ 21.4 µM); MIC ([5]; Table 9, G-block (OligoCF-5/20) 0%): 16 µg/mL (≈ 21.4 µM); MIC ([5]; Table 9, G-block (OligoCF-5/20) 2%): 2 µg/mL (≈ 2.67 µM); MIC ([5]; Table 9, G-block (OligoCF-5/20) 6%): < 1 µg/mL; MIC ([5]; Table 9, G-block (OligoCF-5/20) 10%): < 1 µg/mL; MIC ([6]; Klebsiella pneumoniae (5712, Wales, V12) MDR, G-block (OligoCF-5/20) 0%, read-out: MIC): 16 µg/mL (≈ 21.4 µM); MIC ([6]; Klebsiella pneumoniae (5712, Wales, V12) MDR, G-block (OligoCF-5/20) 2%, read-out: MIC): 16 µg/mL (≈ 21.4 µM); MIC ([6]; Klebsiella pneumoniae (5712, Wales, V12) MDR, G-block (OligoCF-5/20) 6%, read-out: MIC): 16 µg/mL (≈ 21.4 µM); MIC ([6]; Klebsiella pneumoniae (5712, Wales, V12) MDR, G-block (OligoCF-5/20) 10%, read-out: MIC): 16 µg/mL (≈ 21.4 µM); MIC ([6]; Klebsiella pneumoniae (IR25, India, V6) MDR, G-block (OligoCF-5/20) 0%): 128 µg/mL (≈ 171 µM); MIC ([6]; Klebsiella pneumoniae (IR25, India, V6) MDR, G-block (OligoCF-5/20) 2%, read-out: MIC): 64 µg/mL (≈ 85.4 µM); MIC ([6]; Klebsiella pneumoniae (IR25, India, V6) MDR, G-block (OligoCF-5/20) 6%, read-out: MIC): 32 µg/mL (≈ 42.7 µM); MIC ([6]; Klebsiella pneumoniae (IR25, India, V6) MDR, G-block (OligoCF-5/20) 10%, read-out: MIC): 16 µg/mL (≈ 21.4 µM); MIC ([6]; Klebsiella pneumoniae (K3, India, V8) MDR, G-block (OligoCF-5/20) 0%, read-out: MIC): 16 µg/mL (≈ 21.4 µM); MIC ([6]; Klebsiella pneumoniae (K3, India, V8) MDR, G-block (OligoCF-5/20) 2%, read-out: MIC): 8 µg/mL (≈ 10.7 µM); MIC ([6]; Klebsiella pneumoniae (K3, India, V8) MDR, G-block (OligoCF-5/20) 6%, read-out: MIC): 16 µg/mL (≈ 21.4 µM); MIC ([6]; Klebsiella pneumoniae (K3, India, V8) MDR, G-block (OligoCF-5/20) 10%, read-out: MIC): 16 µg/mL (≈ 21.4 µM)
